Read-outs that look alike come from different tables or passages of the source.
How the values were obtained:
[1] = tested on: AHH activity of 6-TG resistant AHH-1 clones; assay: AHH activity induced by BaP in AHH-1 cells resistant to 6-TG; assay type: cell-based, human; settings: 10 μM BaP, 24 hours
Description: 3-hydroxy BaP per 10^6 cells per minute. The quantity of 3-hydroxy BaP was measured by fluorescent intensity activated by a light wavelength of 396 nm and measured at 522 nm using a spectrofluorimeter (Farrand Model Mk-1, Valhalla, N.Y.). This could be induced to about 0.3 pmole of 3-hydroxy BaP per 10^6 cells per minute.
6-TG resistant clones were characterized for AHH activity by measuring the rate of production of 3-OH benzopyrene, a fluorescent metabolite of BaP which is created by AHH activity. […].

[2] = tested on: AHH activity of AHH-1 cells; assay type: cell-based, human
Description: The quantity of 3-hydroxy BaP was measured by fluorescent intensity activated by a light wavelength of 396 nm and measured at 522 nm using a spectrofluorimeter (Farrand Model Mk-1, Valhalla, N.Y.).
After growth of the cells in culture medium with gentamycin and kanamycin, the cells were plated in microtiter plates at a density of about 0.2 cells per well. Colonies were isolated and characterized for BaP-induced growth inhibition. A total of 47 colonies were isolated and contacted with 40 uM BaP. In its normal state, BaP is not highly cytotoxic or mutagenic; however, if metabolized by oxidative activity into one or more epoxides or phenols, the metabolites tend to be toxic and mutagenic.
6-TG resistant clones were characterized for AHH activity by measuring the rate of production of 3-OH benzopyrene, a fluorescent metabolite of BaP which is created by AHH activity.

AHH-1 cells [3] = tested on: AHH-1 cells
G6-A5 cells = assay: in vitro; assay type: cell-based, human; settings: several subclones, exposed directly
Text: (§1) Following the benzo(ghi)perylene selection and after plating in microtitre plates, colonies were isolated and analyzed for MFO activity and PE. […] Several of these subclones were used to detect the mutagenic activity of benzo(a)pyrene, a chemical known to require oxidative metabolism for mutagenicity.

in vitro [4] = assay type: cell-based, human; settings: human, g6-a5 cells, G6-A5 clone, read-out: Relative Survival
Text: as §1

in vitro [5] = settings: human, ahh-1 cells, RELATIVE SURVIVAL; for viability at 48 h, 10 µM: 10 μM × 48 hours; for viability at 48 h, 20 µM: 20 μM × 48 hours
in vitro [6] = assay type: cell-based, human; settings: human, 6-tg resistant ahh-1 cells, 6-TG^r AHH-1 cells, read-out: Relative Survival
Text: (§2) Preferential survival during toxic treatment tested by exposing two sets of cells to varying concentrations of ICR-191.

6-TG^r AHH-1 cells = assay: in vitro; assay type: cell-based, human; settings: varying concentrations of ICR-191
Text: as §2

in vitro [7] = assay type: cell-based; settings: human, ahh-1 cells, read-out: Relative Survival
Text: as §2

AHH-1 cells [8] = assay: Phenotypic expression of ICR-191 induced mutation; assay type: cell-based, human
Description: AHH-1 cell cultures were contacted with ICR-191 (Polysciences Inc, Warrington Pa.) which is a known mutagen comprising an acridine mustard derivative, at varying concentrations ranging up to 1.0 μM, for 24 hours. The cultures were resuspended in growth medium and allowed to grow. At different times after treatment, the cells were contacted with 6-TG to determine the mutant fraction.

human cells = settings: literature ref. 15; cited from earlier work
[9] = 0.3 μM × 24 hours, induction BP

Question: Which results are given for `c1ccc2c(c1)cc1ccc3cccc4ccc2c1c34` [BaP, benzo(a)pyrene]?
Answer: AHH Activity Induced by B(α)P ([1]; clone BP-1): 1.64 pmole 3OHBP/10^6 cells/minute; AHH Activity Induced by B(α)P ([1]; clone BP-2): 2.36 pmole 3OHBP/10^6 cells/minute; AHH Activity Induced by B(α)P ([1]; clone BP-3): 1.88 pmole 3OHBP/10^6 cells/minute; AHH Activity Induced by B(α)P ([1]; clone BP-4): 2.76 pmole 3OHBP/10^6 cells/minute; AHH Activity Induced by B(α)P ([1]; clone BP-5): 0.72 pmole 3OHBP/10^6 cells/minute; AHH Activity Induced by B(α)P ([1]; clone BP-6): 1.88 pmole 3OHBP/10^6 cells/minute; AHH Activity Induced by B(α)P ([1]; clone BP-7): 1.84 pmole 3OHBP/10^6 cells/minute; AHH Activity Induced by B(α)P ([1]; mean TG^R clones): 1.87 pmole 3OHBP/10^6 cells/minute; AHH Activity Induced by B(α)P [2]: 2.04 pmole 3OHBP/10^6 cells/minute; induction of AHH activity [2]: inducers; MUTANT FRACTION × 10^6, MEAN ± STD.DEV. (AHH-1 cells [3]; [9]): 3.4 ± 0.5 × 10^6; MUTANT FRACTION × 10^6, MEAN ± STD.DEV. (AHH-1 cells [3]; 1 μM × 24 hours, induction BP): 4.9 ± 0.9 × 10^6; MUTANT FRACTION × 10^6, MEAN ± STD.DEV. (AHH-1 cells [3]; 3 μM × 24 hours, induction BP): 6.1 ± 1 × 10^6; MUTANT FRACTION × 10^6, MEAN ± STD.DEV. (AHH-1 cells [3]; 10 μM × 24 hours, induction BP): 12.7 ± 1.5 × 10^6; MUTANT FRACTION × 10^6, MEAN ± STD.DEV. (AHH-1 cells [3]; 30 μM × 24 hours, induction BP): 18.2 ± 2.1 × 10^6; mutation of G6-series subclones to a statistically significant degree (G6-A5 cells): mutated to a statistically significant degree; viability at 24 h (in vitro [4]; 0.1 μg/ml): 37%; viability at 24 h (in vitro [4]; 0.2 μg/ml, 24 hour treatment): 41%; viability at 24 h, 0.3 µM (in vitro [5]; [9]): 87%; viability at 24 h, 1 µM (in vitro [5]; 1 μM × 24 hours, induction BP): 102%; viability at 24 h, 3 µM (in vitro [5]; 3 μM × 24 hours, induction BP): 74%; viability at 24 h, 10 µM (in vitro [5]; 10 μM × 24 hours, induction BP): 82%; viability at 24 h, 30 µM (in vitro [5]; 30 μM × 24 hours, induction BP): 75%

Question: Which viability at 24 h (in vitro [6]; 0.25 μg/ml at 24 hrs) does the source give for `COc1ccc2nc3cc(Cl)ccc3c(NCCCNCCCl)c2c1` [ICR-191] here?
Answer: Its viability at 24 h is 48%.

Question: And the viability at 24 h (in vitro [6]; 0.5 μg/ml at 24 hrs)?
Answer: The viability at 24 h was 20%.

Question: What about the viability at 24 h (in vitro [6]; 1.0 μg/ml at 24 hrs) of the same molecule?
Answer: Its viability at 24 h is 14%.

Question: And the “difference in survival rate between non-resistant and 6-TG resistant AHH-1 cells” value (6-TG^r AHH-1 cells)?
Answer: Its value is “did not reach the level of statistical significance”.

Question: And the viability at 24 h (in vitro [7]; 0.25 μg/ml at 24 hrs)?
Answer: Its viability at 24 h is 65%.

Question: And the viability at 24 h (in vitro [7]; 0.5 μg/ml at 24 hrs)?
Answer: Its viability at 24 h is 48%.

Question: What about the viability at 24 h (in vitro [7]; 1.0 μg/ml at 24 hrs) of the same molecule?
Answer: Its viability at 24 h is 13%.

Question: And the “time to full expression of induced mutation” value (AHH-1 cells [8]; ICR-191 up to 1.0 μM, 24 hours)?
Answer: The value was no more than 6 days.

Question: And the “mutant fraction stability after full expression” value (AHH-1 cells [8]; up to 14 days)?
Answer: The value was “remained relatively stable”.

Question: And the “MUTANT FRACTION × 10^6, MEAN ± STD.DEV.” value (AHH-1 cells [3]; 0.63 μM × 24 hours)?
Answer: Its value is 62 ± 11 × 10^6.

Question: What about the “MUTANT FRACTION × 10^6, MEAN ± STD.DEV.” value (AHH-1 cells [3]; 1.25 μM × 24 hours) of the same molecule?
Answer: The value was 116 ± 17 × 10^6.

Question: And the “MUTANT FRACTION × 10^6, MEAN ± STD.DEV.” value (AHH-1 cells [3]; 2.5 μM × 24 hours)?
Answer: Its value is 147 ± 28 × 10^6.

Question: And the viability at 24 h, 0.63 µM (in vitro [5]; 0.63 μM × 24 hours)?
Answer: Its viability at 24 h, 0.63 µM is 65%.

Question: What about the viability at 24 h, 1.25 µM (in vitro [5]; 1.25 μM × 24 hours) of the same molecule?
Answer: The viability at 24 h, 1.25 µM was 48%.

Question: And the viability at 24 h, 2.5 µM (in vitro [5]; 2.5 μM × 24 hours)?
Answer: The viability at 24 h, 2.5 µM was 13%.

Question: With `c1cc2cccc3c4cccc5cccc(c(c1)c23)c54` [Per, perylene] as the molecule, how does the “MUTANT FRACTION × 10^6, MEAN ± STD.DEV.” value (AHH-1 cells [3]; 10 μM × 48 hours, induction BNF) read?
Answer: The value was 2.7 ± 0.6 × 10^6.

Question: What about the “MUTANT FRACTION × 10^6, MEAN ± STD.DEV.” value (AHH-1 cells [3]; 10 μM × 48 hours, induction none) of the same molecule?
Answer: The value was 3.2 ± 0.75 × 10^6.

Question: And the “MUTANT FRACTION × 10^6, MEAN ± STD.DEV.” value (AHH-1 cells [3]; 20 μM × 48 hours, induction BNF)?
Answer: Its value is 2.7 ± 0.6 × 10^6.

Question: What about the “MUTANT FRACTION × 10^6, MEAN ± STD.DEV.” value (AHH-1 cells [3]; 20 μM × 48 hours, induction none) of the same molecule?
Answer: The value was 1.9 ± 0.5 × 10^6.

Question: What about the “mutagenicity for human cells” value (human cells) of the same molecule?
Answer: Its value is “not a mutagen for human cells”.

Question: What about the viability at 48 h, 10 µM (in vitro [5]; induction BNF) of the same molecule?
Answer: The viability at 48 h, 10 µM was 89%.

Question: What about the viability at 48 h, 10 µM (in vitro [5]; induction none) of the same molecule?
Answer: The viability at 48 h, 10 µM was 93%.

Question: And the viability at 48 h, 20 µM (in vitro [5]; induction BNF)?
Answer: The viability at 48 h, 20 µM was 89%.

Question: And the viability at 48 h, 20 µM (in vitro [5]; induction none)?
Answer: The viability at 48 h, 20 µM was 95%.
